# Results: article PMC12519461 (ACS Infectious Diseases, 2025)
# Where two headings read alike, the source gives them in different places.
# What was measured:
# [1] = test system: A. cantonensis L1 larvae; assay: Anthelmintic activity against A. cantonensis first-stage larvae (motility/viability, 24 h); type: cell-based, Angiostrongylus cantonensis; settings: for EC50: 24 h, read-out: A. cantonensis EC50 (μM ± SEM) L1; for activity against the larvae (in words): A. cantonensis larvae in vitro
# Procedure: (§1) Larvae were washed three times in RPMI 1640 medium supplemented with 100 U/mL penicillin and 100 μg/mL streptomycin. Approximately 50 larvae were allocated into individual wells of a 96-well plate containing 200 μL of final volume of RPMI medium. […] Approximately 50 larvae were transferred to each well of a 96-well plate containing RPMI medium. […] Larval viability was monitored at 0 and 24 h post-treatment. […] Assays were performed in triplicate and repeated three times.
# [2] = test system: A. cantonensis L3 larvae; assay: Anthelmintic activity against A. cantonensis infective third-stage larvae (motility/viability, 24 h); type: cell-based, Angiostrongylus cantonensis; settings: in vitro, 21 °C, read-out: A. cantonensis EC50 (μM ± SEM) L3
# Procedure: as §1
# [3] = in vitro; type: cell-based; settings: L4 larvae, up to 1000 μM, read-out: C. elegans LC50
# Procedure: Synchronized fourth-stage (L4) C. elegans larvae were distributed into 96-well plates containing M9 buffer (60 larvae/well). […] After 24 h incubation at 21 °C, larval survival was determined by motility: larvae unresponsive to gentle mechanical stimulation were classified as nonviable. […] Assays were performed in triplicate and repeated three times.
# [4] = Cytotoxicity in HaCat cells (MTT, 72 h); type: cell-based; settings: human, from 500 μM
# Procedure: Cytotoxicity was assessed using the MTT assay. After 72 h, MTT solution was added, followed by 3 h of incubation. Absorbance was measured at 595 nm using an Epoch Microplate Spectrophotometer (BioTek Instruments, Winooski, VT, USA). Assays were performed in triplicate and repeated three times.
# [5] = Angiostrongylus cantonensis, first-stage larvae (L1), in vitro, 21 °C
# [6] = first-stage larvae (L1), in vitro, 21 °C
SMILES,"EC50 [1, 5]",EC50 ([2]; Angiostrongylus cantonensis),LC50 at 24 h [3],CC50 at 72 h ([4]; HaCat cells),activity against the larvae (in words) [1],"EC50 [1, 6]",EC50 [2],EC50 ([1]; Angiostrongylus cantonensis),CC50 at 72 h [4]
"Clc1ccc(C(c2ccccc2)N2CCN(C/C=C/c3ccccc3)CC2)cc1 (stereo not shown) [compound 2, 1-[(4-Chlorophenyl)-phenyl-methyl]-4-[(E)-cinnamyl]piperazine, reference compound]",4.2 ± 1.1 µM,8.6 ± 1.1 µM,> 1000 µM,> 500 µM,,,,,
"Clc1ccc(CN2CCN(C/C=C/c3ccccc3)CC2)cc1 [compound 2a, 1-[(4-Chlorophenyl)methyl]-4-[(E)-cinnamyl]piperazine]",> 100 µM,,> 1000 µM,> 500 µM,no appreciable activity,,,,
"COc1cc(/C=C/C(=O)N2CCN(C(c3ccccc3)c3ccccc3)CC2)ccc1O [compound 3d, (E)-1-(4-Benzhydrylpiperazin-1-yl)-3-(4-hydroxy-3-methoxy-phenyl)prop-2-en-1-one]",> 100 µM,,> 1000 µM,> 500 µM,,,,,
"COc1ccc(/C=C/C(=O)N2CCN(C(c3ccccc3)c3ccccc3)CC2)cc1 [compound 3b, (E)-1-(4-Benzhydrylpiperazin-1-yl)-3-(4-methoxyphenyl)prop-2-en-1-one]",> 100 µM,,> 1000 µM,> 500 µM,,,,,
"O=C(/C=C/c1ccccc1)N1CCN(C(c2ccccc2)c2ccccc2)CC1 [compound 3, (E)-1-(4-Benzhydrylpiperazin-1-yl)-3-phenyl-prop-2-en-1-one]",> 100 µM,,> 1000 µM,> 500 µM,no activity,,,,
"COc1ccc(/C=C/CN2CCN(C(c3ccccc3)c3ccccc3)CC2)cc1 [compound 1b, 1-Benzhydryl-4-[(E)-3-(4-methoxyphenyl)allyl]piperazine]",8.2 to 9.3 µM,8.2 to 9.3 µM,> 1000 µM,> 500 µM,,8.2 ± 1.2 µM,8.7 ± 0.9 µM,,
"O=C(/C=C/c1ccc(O)cc1)N1CCN(C(c2ccccc2)c2ccccc2)CC1 [compound 3c, (E)-1-(4-Benzhydrylpiperazin-1-yl)-3-(4-hydroxyphenyl)prop-2-en-1-one]",> 100 µM,,> 1000 µM,> 500 µM,,,,,
"COc1ccc(/C=C/CN2CCN(C(c3ccccc3)c3ccc(Cl)cc3)CC2)cc1 (stereo not shown) [compound 2b, 1-[(4-Chlorophenyl)-phenyl-methyl]-4-[(E)-3-(4-methoxyphenyl)allyl]piperazine]",8.2 to 9.3 µM,8.2 to 9.3 µM,> 1000 µM,> 500 µM,,9.3 ± 0.9 µM,8.8 ± 1.2 µM,,
"O=C(/C=C/c1ccccc1)N1CCN(Cc2ccccc2)CC1 [compound 3a, (E)-1-(4-Benzylpiperazin-1-yl)-3-phenyl-prop-2-en-1-one]",8.2 µM,18.1 ± 1.5 µM,> 1000 µM,> 500 µM,,8.7 ± 1.1 µM,,,
"O=C(/C=C/c1ccc(O)c(O)c1)N1CCN(C(c2ccccc2)c2ccccc2)CC1 [compound 3e, (E)-1-(4-Benzhydrylpiperazin-1-yl)-3-(3,4-dihydroxyphenyl)prop-2-en-1-one]",> 100 µM,,> 1000 µM,> 500 µM,,,,,
"CCCSc1ccc2nc(NC(=O)OC)[nH]c2c1 [albendazole, reference compound]",,,14.8 ± 1.5 µM,,,,,14.2 ± 1.1 µM,> 500 µM
"C(=C\c1ccccc1)/CN1CCN(C(c2ccccc2)c2ccccc2)CC1 [compound 1, cinnarizine, reference compound]",,,> 1000 µM,,,,,,
"C(=C\c1ccccc1)/CN1CCN(Cc2ccccc2)CC1 [compound 1a, 1-Benzyl-4-[(E)-cinnamyl]piperazine]",> 100 µM,,> 1000 µM,> 500 µM,no appreciable activity,,,,
